Columns and labels:
Type in all cases: cell-based, human
[1] = tested on: senescent fibroblasts (after 37 cell passages); assay: lipofuscin autofluorescence by flow cytometry; conditions: 4 weeks, vs control, p<0.05, FIG. 9
Method: In addition, amounts of lipofuscin accumulated in the cultured cells were measured. Senescent cells (After 37 cell passages) were cultured for 4 weeks in a 5% CO2 incubator at 37° C. in the presence of 5 μM of Y-27632, 5 μM of FASUDIL, and 0.5 μM of SR3677. The culture media were changed at every 4 days with new culture media supplemented with 5 μM of Y-27632, 5 μM of FASUDIL, and 0.5 μM of SR3677. Since lipofuscin has autofluorescence characteristics, light having a wavelength of 488 nm was irradiated to the cells by using a FACSCaliber (Beckton Dickinson) and light emission at 520 nm was measured. The results are analyzed using a Cell Quest 3.2 software (Beckton Dickinson). FIG. 9 is a graph displaying amounts of lipofuscin in fibroblasts (after 37 cell passages) cultured in the presence of Rho-kinase inhibitors Y-27632 (5 μM), Fasudil (5 μM), and SR3677 (0.5 μM). […] In FIG. 9, * indicates statistically significant (p<0.05).

[2] = tested on: senescent progeric fibroblasts (cell passage 17); assay: DNA comet assay; conditions: 4 weeks, vs DMSO, p<0.05, FIG. 21
Method: The degrees of restoration of DNA damage in senescent progeric fibroblasts by the Rho-kinase inhibitors were identified by a DNA comet assay. This method is performed by detecting DNA fractions cleaved by ultraviolet (UV) irradiation. This method is based on gel electrophoresis. During gel electrophoresis, damaged DNA migrates farther than normal DNA forming a tail like a comet-tail. Then, a slide was stained with SYBR Green, and the length of a tail of a DNA fraction was measured using a fluorescence microscope to identify the degree of DNA damage.
FIG. 21 is a graph displaying degrees of DNA damage in progeric fibroblasts (cell passage 17) cultured in the presence of Rho-kinase inhibitors Y-27632 (5 μM), Fasudil (5 μM), and SR3677 (0.5 μM) measured by a DNA comet assay indicating the degree of DNA damage. In FIG. 21, senescent progeric cells (cell passage 17) were cultured in culture media supplemented with 5 μM of Y-27632, 5 μM of FASUDIL, and 0.5 μM of SR3677 for 4 weeks in a 5% CO2 incubator at 37° C. The culture media were changed at every 4 days with new culture media supplemented with 5 μM of Y-27632, 5 μM of FASUDIL, and 0.5 μM of SR3677. Cells having a cell doubling time of 6 to 7 days were used as young cells. A negative control group was prepared in the same manner, except that DMSO was used. […] Thus, it was confirmed that the degree of DNA damage increases in senescent cells. […] In FIG. 21, * indicates statistically significant (p<0.05).

[3] = tested on: senescent progeric fibroblasts (cell passage 17); assay: mitochondrial membrane potential (JC-1) by flow cytometry; conditions: vs control, p<0.05, FIG. 20
Method: (§1) Progeric fibroblasts (Hutchinson-Gilford Progeria Syndrome Skin Fibroblasts, Coriell Cell Repositories, AG03198 B) were cultured in Dulbecco's Modified Eagle's Media (DMEM) supplemented with 10% fetal bovine serpm (FBS) and 100 unit/ml of penicillin, and 100 μg/ml of streptomycin (two antibiotics are purchased from Gibro-BRL and Grand Island, N.Y.) in a 5% CO2 incubator at 37° C. Subculturing was initiated when the cells were approximately 85% confluent in plates. Early subcultures were performed at a split ratio of 1:4, and later subcultures were performed at a split ratio of 1:2. When cell doubling time was 14 days, the cells were regarded as senescent progeric fibroblasts (cell passages 16 to 17).
The senescent progeric fibroblasts (cell passage 17) were seeded on each well of a 6-well plate in a concentration of 2,000 cells/well and cultured in the presence of 5 μM of Y-27632, 5 μM of FASUDIL, and 0.5 μM of SR3677 for 4 weeks in a 5% CO2 incubator at 37° C. The culture media were changed at every 4 days with new culture media supplemented with 5 μM of Y-27632, 5 μM of FASUDIL, and 0.5 μM of SR3677. A negative control group was prepared in the same manner, except that 0.05 (v/v) % of DMSO was used.
Mitochondrial membrane potentials were measured using a MitoProbe™ JC-1 Assay kit for Flow Cytometry (Life technologies, T3168) according to manufacturer's manuals. JC-1 is accumulated in mitochondria in a potential-dependent manner, and this accumulation is identified by fluorescence emission shift from green (about 529 nm) to red (about 590 nm). As a result, mitochondrial depolarization is identified by a decrease in a red/green fluorescence ratio. The mitochondrial membrane potentials were measured by excitation at 488 nm using a FACSCaliber (Beckton Dickinson) and using a flow cytometer by using 530/30 nm and 585/42 nm band pass filters. The results were analyzed using Cell Quest 3.2 software (Beckton Dickinson). FIG. 20 is a graph displaying action potentials of mitochondria. […] In FIG. 20, * indicates statistically significant (p<0.05). […]

[4] = tested on: senescent progeric fibroblasts (passage 17); assay: lipofuscin autofluorescence by flow cytometry; conditions: 4 weeks, vs control, p<0.05, FIG. 18
Method: as §1
In addition, the amounts of lipofuscin accumulated in the cultured cells were measured. Senescent progeric fibroblasts (passage 17) were cultured in the presence of 5 μM of Y-27632, 5 μM of FASUDIL, and 0.5 μM of SR3677 for 4 weeks in a 5% CO2 incubator at 37° C. The culture media were changed at every 4 days with new culture media supplemented with 5 μM of Y-27632, 5 μM of FASUDIL, and 0.5 μM of SR3677. Since lipofuscin has autofluorescence characteristics, light having a wavelength of 488 nm was irradiated to the cells by using a FACSCaliber (Beckton Dickinson) and light emission at 520 nm was measured. The results were analyzed using Cell Quest 3.2 software (Beckton Dickinson). FIG. 18 is a graph displaying amounts of lipofuscin in progeric fibroblasts (passage 17) cultured in the presence of Rho-kinase inhibitors Y-27632 (5 μM), Fasudil (5 μM), and SR3677 (0.5 μM). […] In FIG. 18, * indicates statistically significant (p<0.05).

Row | SMILES | amounts of lipofuscin in cells ([1]; 5 μM) | DNA damage (Tail Moment) ([2]; 5 μM) | action potentials of mitochondria (mitochondrial membrane potential) ([3]; 5 μM) | amounts of lipofuscin ([4]; 5 μM) | amounts of lipofuscin in cells ([1]; 0.5 μM) | DNA damage (Tail Moment) ([2]; 0.5 μM) | action potentials of mitochondria (mitochondrial membrane potential) ([3]; 0.5 μM) | amounts of lipofuscin ([4]; 0.5 μM)
1 | O=S(=O)(c1cccc2cnccc12)N1CCCNCC1 [FASUDIL, 5-(1,4-diazepane-1-sulfonyl)isoquinoline] | significantly reduced | considerably reduced | significantly increased | significantly reduced | – | – | – | –
2 | CN(C)CCOc1cc(-c2cn[nH]c2)ccc1NC(=O)C1COc2ccccc2O1 (stereo not drawn) [SR3677] | – | – | – | – | significantly reduced | considerably reduced | significantly increased | significantly reduced
3 | C[C@@H](N)[C@H]1CC[C@H](C(=O)Nc2ccncc2)CC1 [Y-27632, (1R,4R)-4-((R)-1-aminoethyl)-N-(pyridin-4-yl)cyclohexanecarboxamide] | significantly reduced | considerably reduced | significantly increased | significantly reduced | – | – | – | –
